Laboratory results from ChEMBL document CHEMBL5528029, “Design, synthesis, and biological evaluation of novel discoidin domain receptor inhibitors for the treatment of lung adenocarcinoma and pulmonary fibrosis” (Eur J Med Chem, 2024).
Calls of active or inactive are those of the source. No cut-off for these calls is given here.

Experiments:
[1] = test system: A549; test: Inhibition of epithelial-to-mesenchymal transition in human A549 cells assessed as downregulation of N-cadherin protein expression at 50 to 200 nM by Western blotting analysis; type: functional, cell-based; conditions: dose 50-200 nM
[2] = test system: A549; test: Inhibition of epithelial-to-mesenchymal transition in human A549 cells assessed as downregulation of N-cadherin protein expression at 200 nM by laser confocal microscopy analysis; type: functional, cell-based
[3] = test system: NCI-H1975; test: Antiproliferative activity against human NCI-H1975 cells incubated for 72 hrs by MTT assay; conditions: NCI-H1975, 72 h
[4] = test system: A549; test: Effect on DDR1 level in human A549 cells at 50 to 200 nM by Western blotting analysis; type: functional, cell-based; conditions: dose 50-200 nM
[5] = target: T1, Discoidin domain-containing receptor 2 (Homo sapiens, UniProt Q16832); test: Inhibition of DDR2 (unknown origin)
T1 sequence (Q16832 whole entry): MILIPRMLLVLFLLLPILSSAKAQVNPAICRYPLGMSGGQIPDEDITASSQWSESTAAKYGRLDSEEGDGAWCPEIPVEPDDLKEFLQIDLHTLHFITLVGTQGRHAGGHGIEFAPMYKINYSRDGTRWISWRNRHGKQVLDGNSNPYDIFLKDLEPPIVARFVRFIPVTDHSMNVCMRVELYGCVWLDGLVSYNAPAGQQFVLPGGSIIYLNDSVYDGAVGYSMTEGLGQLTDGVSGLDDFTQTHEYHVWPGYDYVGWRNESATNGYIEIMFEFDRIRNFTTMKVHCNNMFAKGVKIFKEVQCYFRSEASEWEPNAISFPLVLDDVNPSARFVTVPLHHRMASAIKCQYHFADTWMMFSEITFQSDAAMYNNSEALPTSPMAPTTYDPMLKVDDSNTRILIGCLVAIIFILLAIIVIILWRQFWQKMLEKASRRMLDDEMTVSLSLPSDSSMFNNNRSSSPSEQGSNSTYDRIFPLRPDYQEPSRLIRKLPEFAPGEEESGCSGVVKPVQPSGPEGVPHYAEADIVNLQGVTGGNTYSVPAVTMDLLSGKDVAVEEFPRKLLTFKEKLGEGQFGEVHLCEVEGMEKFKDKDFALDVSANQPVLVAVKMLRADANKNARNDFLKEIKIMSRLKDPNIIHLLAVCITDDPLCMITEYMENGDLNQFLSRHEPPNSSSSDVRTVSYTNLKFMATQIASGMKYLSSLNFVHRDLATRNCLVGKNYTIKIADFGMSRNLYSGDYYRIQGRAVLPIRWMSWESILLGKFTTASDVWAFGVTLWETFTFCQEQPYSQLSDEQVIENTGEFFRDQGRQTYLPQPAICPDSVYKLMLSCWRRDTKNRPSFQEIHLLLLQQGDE

[6] = test system: A549; test: Inhibition of cell migration in human A549 cells at 50 to 200 nM by transwell assay; type: functional, cell-based; conditions: dose 50-200 nM
[7] = test system: Mus musculus; test: Antifibrotic activity against bleomycin-induced C57BL/6 mouse model of pulmonary fibrosis assessed as reduction in inflammatory cytokines levels in BALF at 30 mg/kg, ip administered once daily for 21 days; type: functional, organism-based; conditions: time 21.0 day
[8] = test system: Mus musculus; test: Antifibrotic activity against bleomycin-induced C57BL/6 mouse model of pulmonary fibrosis assessed as increase in animal survival at 30 mg/kg, ip administered once daily for 21 days; type: functional, organism-based; conditions: time 21.0 day
[9] = Antiproliferative activity against human SPCA1 cells incubated for 72 hrs by MTT assay; conditions: SPCA1, 72 h
[10] = test system: Mus musculus; test: Antifibrotic activity against bleomycin-induced C57BL/6 mouse model of pulmonary fibrosis assessed as reduction in collagen-I level in pulmonary tissue at 30 mg/kg, ip administered once daily for 21 days by immunofluorescence staining based assay; type: functional, organism-based; conditions: time 21.0 day
[11] = test system: Mus musculus; test: Antifibrotic activity against bleomycin-induced C57BL/6 mouse model of pulmonary fibrosis assessed as reduction in collagen hyperplasia at 30 mg/kg, ip administered once daily for 21 days; type: functional, organism-based; conditions: time 21.0 day
[12] = test system: A549; test: Inhibition of epithelial-to-mesenchymal transition in human A549 cells assessed as upregulation of E-cadherin protein expression at 200 nM by laser confocal microscopy analysis; type: functional, cell-based
[13] = test system: Mus musculus; test: Antifibrotic activity against bleomycin-induced C57BL/6 mouse model of pulmonary fibrosis assessed as reduction in alpha-SMA level in pulmonary tissue at 30 mg/kg, ip administered once daily for 21 days by immunofluorescence staining based assay; type: functional, organism-based; conditions: time 21.0 day
[14] = test system: A549; test: Inhibition of epithelial-to-mesenchymal transition in human A549 cells assessed as upregulation of E-cadherin protein expression at 50 to 200 nM by Western blotting analysis; type: functional, cell-based; conditions: dose 50-200 nM
[15] = test system: NIH3T3; test: Inhibition of TGF-beta1 induced mouse NIH3T3 cells activation assessed as reduction in alpha-SMA level at 3 to 6 uM preincubated with TGF-beta1 followed by compound addition by immunofluorescence staining based assay; type: functional, cell-based; conditions: dose 3-6 µM
[16] = test system: Mus musculus; test: In vivo inhibition of DDR1 phosphorylation in SPF BALB/c nude mouse xenografted with human A549 cells at 30 mg/kg, ip administered for 14 days; type: functional, organism-based; conditions: time 14.0 day
[17] = target: High affinity nerve growth factor receptor (Homo sapiens) (UniProt P04629); test: Inhibition of TRK-A (unknown origin) assessed as remaining activity at 1 uM using fluorescein-poly GAT as substrate in presence of ATP by TR-FRET assay relative to control
[18] = test system: A549; test: Antiproliferative activity against human A549 cells incubated for 72 hrs by MTT assay; conditions: A549, 72 h
[19] = test system: A549; test: Antitumor activity against human A549 cells xenografted in SPF BALB/c nude mouse assessed as reduction in cell growth ratio at 30 mg/kg, ip administered for 14 days by TUNEL staining based immunohistochemistry analysis; type: functional, organism-based; conditions: time 14.0 day
[20] = test system: Mus musculus; test: Antifibrotic activity against bleomycin-induced C57BL/6 mouse model of pulmonary fibrosis assessed as reduction in morphological changes at 30 mg/kg, ip administered once daily for 21 days by H and E staining based assay; type: functional, organism-based; conditions: time 21.0 day
[21] = test system: NIH3T3; test: Inhibition of TGF-beta1 induced mouse NIH3T3 cells activation assessed as reduction in collagen-I accumulation at 3 to 6 uM preincubated with TGF-beta1 followed by compound addition by immunofluorescence staining based assay; type: functional, cell-based; conditions: dose 3-6 µM
[22] = target: Mitogen-activated protein kinase; ERK1/ERK2 (Homo sapiens) (UniProt P27361+P28482); test: Inhibition of ERK1/2 phosphorylation in human A549 cells at 50 to 200 nM by Western blotting analysis; type: cell-based; conditions: dose 50-200 nM
[23] = test system: A549; test: Antitumor activity against human A549 cells xenografted in SPF BALB/c nude mouse assessed as reduction in Ki-67 expression at 30 mg/kg, ip administered for 14 days by immunohistochemistry analysis; type: functional, organism-based; conditions: time 14.0 day
[24] = test system: A549; test: Effect on AKT1 level in human A549 cells at 50 to 200 nM by Western blotting analysis; type: functional, cell-based; conditions: dose 50-200 nM
[25] = target: BDNF/NT-3 growth factors receptor (Homo sapiens) (UniProt Q16620); test: Inhibition of TRK-B (unknown origin) assessed as remaining activity at 1 uM using fluorescein-poly GAT as substrate in presence of ATP by TR-FRET assay relative to control
[26] = target: NT-3 growth factor receptor (Homo sapiens) (UniProt Q16288); test: Inhibition of TRK-C (unknown origin) assessed as remaining activity at 1 uM using fluorescein-poly GAT as substrate in presence of ATP by TR-FRET assay relative to control
[27] = Toxicity in SPF BALB/c nude mouse xenografted with human A549 cells assessed as weight loss at 30 mg/kg, ip administered for 14 days; type: organism-based; conditions: in vivo, 336 h, time 14 day
[28] = test system: Mus musculus; test: Antifibrotic activity against bleomycin-induced C57BL/6 mouse model of pulmonary fibrosis assessed as reduction in neutrophil count in BALF at 30 mg/kg, ip administered once daily for 21 days; type: functional, organism-based; conditions: time 21.0 day
[29] = test system: A549; test: Antiproliferative activity against human A549 cells transfected with DDR1 siRNA incubated for 72 hrs by MTT assay; type: functional, cell-based
[30] = test system: A549; test: Effect on ERK1/2 level in human A549 cells at 50 to 200 nM by Western blotting analysis; type: functional, cell-based; conditions: dose 50-200 nM
[31] = test system: A549; test: Antitumor activity against human A549 cells xenografted in SPF BALB/c nude mouse assessed as tumor growth inhibition at 30 mg/kg, ip administered for 14 days; type: functional, organism-based; conditions: time 14.0 day
[32] = test system: Mus musculus; test: Antifibrotic activity against bleomycin-induced C57BL/6 mouse model of pulmonary fibrosis assessed as reduction in total cell count in BALF at 30 mg/kg, ip administered once daily for 21 days; type: functional, organism-based; conditions: time 21.0 day
[33] = target: RAC-alpha serine/threonine-protein kinase (Homo sapiens) (UniProt P31749); test: Inhibition of Akt1 phosphorylation in human A549 cells at 50 to 200 nM by Western blotting analysis; type: cell-based; conditions: dose 50-200 nM
[34] = test system: Mus musculus; test: Antifibrotic activity against bleomycin-induced C57BL/6 mouse model of pulmonary fibrosis assessed as increase in animal survival at 15 mg/kg, ip administered once daily for 21 days; type: functional, organism-based; conditions: time 21.0 day
[35] = target: T2, Discoidin domain-containing receptor 2 (Homo sapiens) (UniProt Q16832); test: Inhibition of DDR2 (unknown origin) assessed as remaining activity at 1 uM using fluorescein-poly GAT as substrate in presence of ATP by TR-FRET assay relative to control
T2 sequence (whole entry): T1 sequence (Q16832 whole entry)

Chain of RAC-alpha serine/threonine-protein kinase (Homo sapiens) (P31749 whole entry): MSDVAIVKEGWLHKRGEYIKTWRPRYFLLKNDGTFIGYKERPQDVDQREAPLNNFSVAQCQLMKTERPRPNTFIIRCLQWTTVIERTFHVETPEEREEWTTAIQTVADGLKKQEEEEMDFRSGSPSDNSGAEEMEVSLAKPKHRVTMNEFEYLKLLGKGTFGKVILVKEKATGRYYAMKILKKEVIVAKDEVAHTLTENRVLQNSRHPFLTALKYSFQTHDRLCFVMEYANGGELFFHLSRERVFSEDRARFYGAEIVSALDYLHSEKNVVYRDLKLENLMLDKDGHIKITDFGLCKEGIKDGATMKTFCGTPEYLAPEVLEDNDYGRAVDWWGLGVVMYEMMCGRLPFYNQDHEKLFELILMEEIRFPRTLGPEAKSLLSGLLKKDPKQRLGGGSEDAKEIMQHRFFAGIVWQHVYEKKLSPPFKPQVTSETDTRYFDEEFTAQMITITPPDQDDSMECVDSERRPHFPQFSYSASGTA
Chain of NT-3 growth factor receptor (Homo sapiens) (Q16288 32-839 limits assumed): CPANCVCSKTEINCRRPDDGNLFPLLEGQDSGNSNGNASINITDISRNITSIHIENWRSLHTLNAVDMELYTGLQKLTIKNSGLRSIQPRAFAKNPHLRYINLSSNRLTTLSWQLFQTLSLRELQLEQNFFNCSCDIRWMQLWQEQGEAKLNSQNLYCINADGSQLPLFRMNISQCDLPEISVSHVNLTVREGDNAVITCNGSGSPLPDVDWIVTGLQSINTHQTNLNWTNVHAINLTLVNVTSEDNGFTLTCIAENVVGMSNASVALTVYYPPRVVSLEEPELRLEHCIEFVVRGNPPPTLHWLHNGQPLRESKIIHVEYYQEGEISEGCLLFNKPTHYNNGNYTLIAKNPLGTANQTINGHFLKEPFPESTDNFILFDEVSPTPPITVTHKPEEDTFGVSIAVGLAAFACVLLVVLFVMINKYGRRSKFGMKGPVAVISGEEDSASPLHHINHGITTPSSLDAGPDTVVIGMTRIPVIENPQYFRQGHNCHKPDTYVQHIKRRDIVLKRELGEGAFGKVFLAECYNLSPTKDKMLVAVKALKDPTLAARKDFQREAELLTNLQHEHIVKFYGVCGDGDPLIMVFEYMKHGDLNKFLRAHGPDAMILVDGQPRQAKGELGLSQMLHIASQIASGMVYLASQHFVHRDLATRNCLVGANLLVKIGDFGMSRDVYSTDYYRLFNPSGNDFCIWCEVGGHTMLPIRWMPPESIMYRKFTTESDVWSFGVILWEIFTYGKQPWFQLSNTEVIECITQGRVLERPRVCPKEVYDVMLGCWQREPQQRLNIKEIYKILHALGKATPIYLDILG
Chain of High affinity nerve growth factor receptor (Homo sapiens) (P04629 33-796 limits assumed): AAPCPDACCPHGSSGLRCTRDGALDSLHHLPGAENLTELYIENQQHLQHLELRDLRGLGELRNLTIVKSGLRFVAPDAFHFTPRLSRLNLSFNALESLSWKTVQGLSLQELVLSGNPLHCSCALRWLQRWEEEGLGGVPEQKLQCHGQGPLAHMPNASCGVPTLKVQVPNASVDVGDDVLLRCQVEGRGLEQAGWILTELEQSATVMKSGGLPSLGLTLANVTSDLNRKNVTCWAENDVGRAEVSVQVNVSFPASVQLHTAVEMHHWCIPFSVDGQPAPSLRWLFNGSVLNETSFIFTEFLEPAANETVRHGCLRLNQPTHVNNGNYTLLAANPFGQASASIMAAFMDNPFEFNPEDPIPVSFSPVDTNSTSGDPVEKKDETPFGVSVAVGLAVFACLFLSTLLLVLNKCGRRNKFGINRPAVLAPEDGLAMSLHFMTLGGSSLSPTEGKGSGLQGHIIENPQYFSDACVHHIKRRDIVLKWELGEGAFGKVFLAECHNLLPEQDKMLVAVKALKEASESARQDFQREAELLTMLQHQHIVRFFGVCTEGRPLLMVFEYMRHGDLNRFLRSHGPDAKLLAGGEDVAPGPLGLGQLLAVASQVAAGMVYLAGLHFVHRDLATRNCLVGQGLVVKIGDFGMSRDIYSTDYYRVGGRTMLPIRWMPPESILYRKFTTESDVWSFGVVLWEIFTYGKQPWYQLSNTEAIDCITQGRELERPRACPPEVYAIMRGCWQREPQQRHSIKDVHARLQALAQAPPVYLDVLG
Chain of BDNF/NT-3 growth factors receptor (Homo sapiens) (Q16620 32-822 limits assumed): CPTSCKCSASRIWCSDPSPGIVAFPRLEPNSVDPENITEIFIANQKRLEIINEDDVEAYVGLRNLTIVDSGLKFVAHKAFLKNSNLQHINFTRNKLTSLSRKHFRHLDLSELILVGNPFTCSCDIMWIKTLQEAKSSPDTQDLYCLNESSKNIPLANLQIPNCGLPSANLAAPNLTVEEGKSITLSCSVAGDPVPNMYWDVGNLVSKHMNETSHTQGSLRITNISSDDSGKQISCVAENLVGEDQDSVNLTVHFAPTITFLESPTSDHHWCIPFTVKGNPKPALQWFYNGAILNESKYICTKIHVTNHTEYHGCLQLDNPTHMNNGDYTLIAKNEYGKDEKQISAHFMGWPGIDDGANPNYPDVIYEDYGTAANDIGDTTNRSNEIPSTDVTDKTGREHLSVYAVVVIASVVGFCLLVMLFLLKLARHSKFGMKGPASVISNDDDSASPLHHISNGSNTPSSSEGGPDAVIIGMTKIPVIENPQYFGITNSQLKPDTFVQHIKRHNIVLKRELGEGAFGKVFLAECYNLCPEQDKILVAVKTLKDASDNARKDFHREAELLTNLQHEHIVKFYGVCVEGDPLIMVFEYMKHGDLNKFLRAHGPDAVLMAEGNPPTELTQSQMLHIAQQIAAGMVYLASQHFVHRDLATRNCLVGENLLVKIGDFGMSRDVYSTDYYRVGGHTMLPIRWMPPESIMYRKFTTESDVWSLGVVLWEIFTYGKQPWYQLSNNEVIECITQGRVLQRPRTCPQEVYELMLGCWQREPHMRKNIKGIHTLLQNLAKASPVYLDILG
Chain of Mitogen-activated protein kinase; ERK1/ERK2 (Homo sapiens) (P27361 whole entry, looked up): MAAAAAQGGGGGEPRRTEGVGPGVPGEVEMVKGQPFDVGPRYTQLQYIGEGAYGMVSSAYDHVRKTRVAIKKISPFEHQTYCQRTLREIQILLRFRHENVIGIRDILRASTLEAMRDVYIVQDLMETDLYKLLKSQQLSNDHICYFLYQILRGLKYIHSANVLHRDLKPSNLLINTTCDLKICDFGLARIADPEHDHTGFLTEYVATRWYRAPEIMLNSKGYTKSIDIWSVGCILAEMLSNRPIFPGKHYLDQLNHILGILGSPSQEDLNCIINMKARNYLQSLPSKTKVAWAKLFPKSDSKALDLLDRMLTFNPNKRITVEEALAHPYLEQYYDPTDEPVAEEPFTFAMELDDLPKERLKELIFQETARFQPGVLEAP
Chain of Mitogen-activated protein kinase; ERK1/ERK2 (Homo sapiens) (P28482 whole entry, looked up): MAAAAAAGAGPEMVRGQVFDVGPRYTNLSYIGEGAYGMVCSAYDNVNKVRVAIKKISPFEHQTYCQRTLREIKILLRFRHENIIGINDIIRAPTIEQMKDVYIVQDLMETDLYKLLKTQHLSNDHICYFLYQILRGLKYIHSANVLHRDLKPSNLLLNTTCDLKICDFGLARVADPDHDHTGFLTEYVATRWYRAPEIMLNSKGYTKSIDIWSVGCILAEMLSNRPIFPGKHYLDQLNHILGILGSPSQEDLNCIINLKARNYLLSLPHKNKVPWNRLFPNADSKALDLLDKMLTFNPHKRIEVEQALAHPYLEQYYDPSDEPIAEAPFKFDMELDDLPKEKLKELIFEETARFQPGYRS

Question: Which inhibition [1] does the source give for CN1CCN(C(=O)Cn2cc(CNC(=O)Nc3ccc(F)cc3F)c3cc(F)ccc32)CC1 here?
Answer: Its inhibition is “Active”.

Question: What about the inhibition [2] of the same molecule?
Answer: Its inhibition is “Active”.

Question: What about the IC50 [3] of the same molecule?
Answer: Its IC50 is 1870 nM.

Question: What about the Activity [4] of the same molecule?
Answer: Its Activity is “inactive”.

Question: And the IC50 [5]?
Answer: Its IC50 is 126 nM.

Question: What about the inhibition [6] of the same molecule?
Answer: The inhibition was “Active”.

Question: What about the Activity [7] of the same molecule?
Answer: The Activity was “Active”.

Question: And the Activity [8]?
Answer: Its Activity is “Active”.

Question: And the IC50 [9]?
Answer: Its IC50 is 3.51 µM.

Question: What about the Activity [10] of the same molecule?
Answer: Its Activity is “Active”.

Question: What about the Activity [11] of the same molecule?
Answer: Its Activity is “Active”.

Question: And the inhibition [12]?
Answer: The inhibition was “Active”.

Question: What about the Activity [13] of the same molecule?
Answer: The Activity was “Active”.

Question: And the inhibition [14]?
Answer: Its inhibition is “Active”.

Question: What about the inhibition [15] of the same molecule?
Answer: The inhibition was “Active”.

Question: And the inhibition [16]?
Answer: Its inhibition is “Active”.

Question: And the Activity [17]?
Answer: Its Activity is 84.9%.

Question: What about the IC50 [18] of the same molecule?
Answer: Its IC50 is 1840 nM.

Question: And the Activity [19]?
Answer: Its Activity is “Active”.

Question: And the Activity [20]?
Answer: The Activity was “Active”.

Question: And the inhibition [21]?
Answer: The inhibition was “Active”.

Question: What about the inhibition [22] of the same molecule?
Answer: Its inhibition is “Active”.

Question: And the Activity [23]?
Answer: The Activity was “Active”.

Question: And the Activity [24]?
Answer: Its Activity is “inactive”.

Question: And the Activity [25]?
Answer: Its Activity is 106%.

Question: What about the Activity [26] of the same molecule?
Answer: The Activity was 78.6%.

Question: And the Activity [27]?
Answer: Its Activity is “Non-Toxic”.

Question: And the Activity [28]?
Answer: The Activity was “Active”.

Question: And the Activity [29]?
Answer: The Activity was “inactive”.

Question: What about the Activity [30] of the same molecule?
Answer: Its Activity is “inactive”.

Question: What about the Activity [31] of the same molecule?
Answer: Its Activity is “Active”.

Question: What about the Activity [32] of the same molecule?
Answer: Its Activity is “Active”.

Question: And the inhibition [33]?
Answer: The inhibition was “Active”.

Question: And the Activity [34]?
Answer: Its Activity is “Active”.

Question: What about the Activity [35] of the same molecule?
Answer: The Activity was 13.7%.
